“Also recorded” adds a separate entry of the source. Read-outs that look alike come from different tables or passages of the source. One block for each compound: values may come before it.
Experiments:
Type in all cases: physicochemical
[1] = Particle size distribution (PSD)
[2] = Approximate solubility by manual dilution combined with visual observation; conditions: thermodynamic from solid
Experimental: The approximate solubility was tested at room temperature by manual dilution combined with visual observation. The solubility of material in different single and mixed solvents was determined at the concentration once no particles of farudodstat could be visually observed in solvents.

[3] = Form stability of DSP polymorph after processing/recrystallisation (XRPD, DSC, TGA)
Experimental: The farudodstat DSP polymorph was characterized using X-ray powder diffraction (XRPD), differential scanning calorimetry (DSC), thermogravimetric analysis, (TGA) and polarized light microscopy (PLM). Then it was subjected to various recrystallisation and analysis to confirm it was a DSP polymorph.
The suspensions of the DSP polymorph were prepared in different single solvents and mixed solvents (see Table 4 below). After this the samples were kept shaking for 72 hrs at 25° C. and 50° C. before they were centrifuged at 14,000 rpm for 10 mins until solid material was separated from the supernatant. The centrifuged samples were investigated by XRPD. The samples were dried under vacuum conditions at 40° overnight and investigated by XRPD, DSC and TGA if new XRPD patterns were found.
The farudodstat DSP polymorph was subject to processing or treated to test the physical stability of the form.
50 mg of the DSP polymorph was dissolved in the selected solvents (see Table 4) according to the solubility results to form saturated solutions. Next, the anti-solvent was slowly added into the solution under stirring until the precipitation formed. If there was no solid precipitation at room temperature, the sample was transferred into the freezer and stored at −20° C. After this, the slurries were stirred for 24 hours before they were centrifuged at 14,000 rpm for 10 mins, until solid material was separated from the supernatant. The centrifuged samples were investigated by XRPD. The samples were next dried under vacuum conditions at 40° C. overnight. If crystalline XRPD patterns were found, the samples were further investigated by XRPD, DSC and TGA.
Due to the high solubility of the DSP polymorph in some solvents (see Table 4), these solvents were chosen for the evaporation test. The solutions were prepared according to the solubility of the compound and were kept open at room temperature to let the solvents evaporate to form crystals. After evaporation was complete, the dried solids were collected and investigated by XRPD. Further tests were performed on DSC and TGA if new XRPD patterns were found.
10-30 mg of the original form of ASLAN003 was loaded into glass vials and placed in a thermomixer at either 60° C. or 50° C. After this, the selected solvents (see Table 4) were slowly added to the samples until the compound was completely dissolved. Next, the samples were transferred into the Crystal 16 crystallizer and the cooled to 0° C. at a rate of 0.5° C./min, before they were held at 0° C. for 24 hrs. If there was no solid precipitation at 0° C., the sample was transferred into a freezer at −20° C. […]
Two samples from Example 4: • 1. […] THF with water by antisolvent were further characterized after drying under vacuum conditions at 40° C. overnight and evaluated.

[4] = Polymorph screening experiments (XRPD of returned solids); conditions: for XRPD after thermal cycling: 5-40° C., ~72 hours, THP and THF; for XRPD after 2-week slurry: 40° C.; for XRPD (Grind): fast evaporation at 100° C., post-grinding
Experimental: A solvent solubility screen was carried out on the farudodstat DSP polymorph (also referred to as CS-276-22 in the following examples) to determine its solubility in various solvents, and to gain an initial assessment of the polymorphic landscape. To ˜20 mg samples of predominantly amorphous farudodstat, aliquots (2×50 μL and then 100 μL) of the chosen solvents were added until dissolution was observed, or 2 mL had been added. The samples were manually agitated and heated to ˜40° C. in a block attached to a water bath in between each aliquot Clear solutions were uncapped and allowed to evaporate at room temperature. Any solids obtained from slurries and from evaporation were analysed by X-ray powder diffraction (XRPD).
16×20 mg of the farudodstat DSP polymorph sample was weighed into 2 mL bead mill vials and was milled for 1.5 hrs for amorphization. Next, 5 μL of appropriate solvents (see Table 6) were added to each sample. The samples were then bead milled using the following procedure: • 1. 2 stainless steel beads were added to each vial. • 2. 4500 rpm • 3. 10×90 s cycles • 4. 10 s hold between each cycle • 5. Repeated 4× to give 1 hr milling time
16×20 mg of farudodstat sample was first weighed into 2 mL bead mill vials and was milled to prepare amorphous material. To all the […] bead milled samples, appropriate solvents (see Table 6) were added in 100 μL aliquots until a mobile slurry was obtained without any dissolution observed. Between additions, the samples were stirred at 40° C. Samples were then stirred, and temperature cycled between 5-40° C. (0.1° C./min heating/cooling rate, 1 hour hold at each temperature) for ˜72 hours.
After 48 hours, samples were checked. If necessary, additional solids added. Non-mobile solid in solution samples were agitated using a spatula until a mobile slurry was obtained. Slurries were isolated by centrifugation ([…] nylon filters) and the solids analysed by XRPD. Post XRPD analysis, the XRPD plate was dried at 40° C. under vacuum for 48 hours and the solids reanalysed by XRPD to give an indication of form stability.
The saturate isolated from the previous thermal cycling experiment was left to evaporate at room temperature. Any solids returned from evaporation were analysed by XRPD.
16×20 mg of farudodstat sample was weighed into 2 mL bead mill vials and then milled to prepare amorphous material. To the bead milled sample, appropriate solvent was added in 100 μL aliquots until a mobile slurry was obtained without any dissolution observed. Between additions, the samples were stirred at 50° C. and 100° C. depending upon the boiling point of the solvent to dissolve the API in the solvent system. Samples were checked and slurries were isolated by centrifugation ([…] Nylon filters) and the saturates were put in an HPLC vials. Next, the vials were uncapped and were left to evaporate at 50° C. using a water bath. Finally, after the complete evaporation of solvent, the remaining solid were analysed by XRPD to check for appearance of any new patterns.
20 mg×5 of farudodstat sample was weighed into 2 ml bead mill vials and milled to prepare amorphous material. To the bead milled sample, appropriate solvent was added in 100 μL aliquots until a mobile slurry was obtained without any dissolution observed. Between additions, the samples were stirred at 100° C. to dissolve the API in the solvent system. Samples were checked and slurries were isolated by centrifugation (0.22 μm Nylon filters) and the saturates were put in an HPLC vials. The vials were then uncapped and were left to evaporate at 100° C. using a sand bath. After the complete evaporation of solvent, the remaining solid were analysed by XRPD to check for appearance of any new patterns.
20 mg×16 farudodstat sample was weighed into 2 ml bead mill vials and milled to prepare amorphous material. The appropriate solvent was added in 100 μL aliquots until a mobile slurry was obtained without any dissolution observed. […]

- Particle Size D10 [1]: 2.54 μm
- Particle Size D50 [1]: 5.97 μm
- Particle Size D90 [1]: 11.79 μm
- Particle Size MV [1]: 6.70 μm
Compound: COc1cccc(-c2cc(F)c(Nc3ncccc3C(=O)O)c(F)c2)c1 [1302NC0160A-01]

- Particle Size D10 [1]: 32.34 μm
- Particle Size D50 [1]: 160.95 μm
- Particle Size D90 [1]: 238.22 μm
- Particle Size MV [1]: 151.47 μm
Compound: COc1cccc(-c2cc(F)c(Nc3ncccc3C(=O)O)c(F)c2)c1 [1412NC0160A-01]

- Particle Size D10 [1]: 0.90 μm
- Particle Size D50 [1]: 3.46 μm
- Particle Size D90 [1]: 45.05 μm
- Particle Size MV [1]: 13.27 μm
Compound: COc1cccc(-c2cc(F)c(Nc3ncccc3C(=O)O)c(F)c2)c1 [1412NC0160A-02]

- solubility ([2]; 11 organic solvents/mixed solvents, organic solvent or mixture, read-out: relatively poor solubility): < 10000 µg/mL
- solubility ([2]; organic solvent or mixture, Acetone:Dichloromethane (1:1), room temperature, read-out: Solubility): < 1580 µg/mL
- solubility ([2]; organic solvent or mixture, Acetone:Dichloromethane (3:1), room temperature, read-out: Solubility): < 1900 µg/mL
- solubility ([2]; organic solvent or mixture, CHCl3, room temperature, read-out: Solubility): < 570 µg/mL
- solubility ([2]; organic solvent or mixture, Cyclohexane, room temperature, read-out: Solubility): < 490 µg/mL
- solubility ([2]; organic solvent or mixture, Dichloromethane, room temperature, read-out: Solubility): < 600 µg/mL
- solubility ([2]; organic solvent or mixture, Heptane, room temperature, read-out: Solubility): < 810 µg/mL
- solubility ([2]; organic solvent or mixture, THF-Heptane (1:1), room temperature, read-out: Solubility): < 1510 µg/mL
- solubility ([2]; organic solvent or mixture, Toluene, room temperature, read-out: Solubility): < 530 µg/mL
- solubility ([2]; organic solvent or mixture, some solvents, room temperature, read-out: High solubility): > 100000 µg/mL
- solubility ([2]; Water, room temperature, read-out: Solubility): < 530 µg/mL
- Weight loss on heating ([3]; after heating to 200° C.): minimum weight loss
- Form found in screening experiments ([3]; all experiments of Table 4 (anti-solvent, grinding, crystallization, drying, milling, heating/cooling, slurry, evaporation)): predominant form
- Stability on recrystallisation ([3]; recrystallized from a number of solvents): stable and reproducible
- Polymorph stability ([3]; samples from THF evaporation and THF-water antisolvent, dried under vacuum at 40° C. overnight): stable
Compound: COc1cccc(-c2cc(F)c(Nc3ncccc3C(=O)O)c(F)c2)c1 [farudodstat DSP polymorph, 2-(3,5-difluoro-3′methoxybiphenyl-4-ylamino)nicotinic acid]
- Overall stability of polymorph ([4]; conclusion of screening experiments): highly stable; also recorded: high stability

- XRPD after room temperature evaporation ([4]; 1,1,1.3.3.3-Hexafluoro-2-Propanol, 2-Methyl THF, DMF, THF and THP): returned to Pattern 1
- XRPD of solids, solvent solubility assessment ([4]; 1,1-Dimethoxymethane, 1,4-Dioxane, 2-Ethoxyethanol, 1,1,1,3,3,3-Hexafluoro-2-Propanol, 2-Methyl THF, Benzyl Alcohol): remained amorphous
- XRPD after fast evaporation at 50° C. ([4]; 1,1-dimethoxymethane and 2-propanol): showed amorphous pattern
- XRPD after fast evaporation at 50° C. ([4]; 1,3-dioxlane, 1,4-dioxane): showed preferred orientation
- XRPD after fast evaporation at 50° C. ([4]; 2-Ethoxyethanol, new peak at 21.1° 2θ): potential new pattern
- XRPD of solids, solvent solubility assessment ([4]; 2-propanol, 48% Methanol:52% Water, 93% Ethanol:7% Water, 98.5% Ethanol:1.5% Water, Methanol, tert-Butylmethyl Ether): returned to Pattern 1
- XRPD after thermal cycling ([4]; 1,4-dioxane): remained semi-crystalline
- XRPD after thermal cycling ([4]; solvents other than 1,4-dioxane): returned to Pattern 1
- XRPD after 2-week slurry ([4]; 93% Ethanol:7% Water, 48% Methanol:52% Water, 2-Propanol, 2-Methyl THF): returned to Pattern 1
- XRPD after anti-solvent addition + fast cool ([4]; MEK as anti-solvent in 1,4-dioxane, freezer 72 hrs): consistent with Pattern 1
- XRPD after fast evaporation at 50° C. ([4]; THP, THF, 2-methyl THF and 1,1,1.3.3.3-Hexafluoro-2-Propanol): returned to Pattern 1
- XRPD after solvent drop grinding ([4]; all 16 solvent systems): returned to pattern 1
- XRPD after bead milling ([4]; bead milling): less crystalline material
- XRPD after fast cooling ([4]; crash cooling of 1,3-dioxolane saturate, freezer 72 hrs): preferred orientation of Pattern 1
- XRPD (Grind) ([4]; N,N′-Dimethylacetamide): Pattern 1
- XRPD (Grind) ([4]; N,N′-Dimethylformamide): Pattern 1
- XRPD after anti-solvent addition at 50° C. ([4]; water addition to all the 16 saturates): returned to Pattern 1
- XRPD after anti-solvent addition ([4]; water, room temperature, except 2-Methyl THF, 2-Propanol, 48% Methanol:52% Water, 93% Ethanol:7% Water, Benzyl Alcohol (clear solutions)): returned to Pattern 1
Compound: COc1cccc(-c2cc(F)c(Nc3ncccc3C(=O)O)c(F)c2)c1 [farudodstat, 2-(3,5-difluoro-3′-methoxybiphenyl-4-ylamino) nicotinic acid]
- XRPD after room temperature evaporation ([4]; 1,1-Dimethoxymethane, 1,3-Dioxolane, 1,4-Dioxane): showed preferred orientation of Pattern 1 but returned to Pattern 1 after grinding
- XRPD after 2-week slurry then fast evaporation at 100° C. ([4]; 1,1-Dimethoxymethane, 1,3-Dioxolane, 2-Ethoxyethanol, 1,1,1.3.3.3-Hexafluoro-2-Propanol, DMA, DMF and NMP): showed preferred orientation. However, post-grinding returned these to Pattern 1
- XRPD after 2-week slurry ([4]; THF and THP): additional peaks with Pattern 1 at 8.1° 2θ (Pattern 1+)
- XRPD after fast evaporation at 50° C. ([4]; DMF): pattern 1 with significant preferred orientation
- XRPD after anti-solvent addition ([4]; acetone as anti-solvent, 1,1,1.3.3.3-Hexafluoro-2-Propanol): returned to Pattern 1 with additional peaks
- XRPD of solids, solvent solubility assessment ([4]; evaporation of clear solution of THF and THP): showed preferred orientation, but later returned to Pattern 1 post grinding

— patent US20250145570A1, “DHODH INHIBITOR POLYMORPH” (Aslan Pharmaceuticals Pte Ltd, priority 2022, published 2025)
